Measurements taken from patent US11008282B2, “Bicyclic-compounds for use as a medicament, in particular for treatment of parkinson's disease” (CAPROTEC BIOANALYTICS GMBH, priority 2015, dated 2021).
Entries after “also recorded” stand apart in the source; their conditions may differ. Like-named read-outs stand apart in the source and are kept apart here.

Key:
HepG2 cells [1] = details: human
HepG2 cells [2] = assay: Mitochondrial toxicity assessment (Glu/Gal), ATPlite / Mitochondrial ToxGlo assay; type: cell-based, human; details: for IC50 in galactose media compared to glucose media: ATP content, HepG2 cells; for mitochondrial cytotoxicity: HepG2 cells (FIG. 7)
[3] = in vivo; cited from earlier work
HIBCH [4] = target: T1, HIBCH (Homo sapiens, UniProt Q6NVY1); assay: dCCMS and dose-dependent capturing, HepG2 lysate; type: binding; set-up: performing CCMS experiments in the hepatoma-derived cell line HepG2; host or cells: HepG2 lysate; details: for competition of HIBCH capture (dCCMS): CPT-224 1 μM, competitor 50 μM, HepG2 lysate; for binding to HIBCH: dCCMS (FIG. 5, FIG. 6)
T1 sequence (Q6NVY1 33-386): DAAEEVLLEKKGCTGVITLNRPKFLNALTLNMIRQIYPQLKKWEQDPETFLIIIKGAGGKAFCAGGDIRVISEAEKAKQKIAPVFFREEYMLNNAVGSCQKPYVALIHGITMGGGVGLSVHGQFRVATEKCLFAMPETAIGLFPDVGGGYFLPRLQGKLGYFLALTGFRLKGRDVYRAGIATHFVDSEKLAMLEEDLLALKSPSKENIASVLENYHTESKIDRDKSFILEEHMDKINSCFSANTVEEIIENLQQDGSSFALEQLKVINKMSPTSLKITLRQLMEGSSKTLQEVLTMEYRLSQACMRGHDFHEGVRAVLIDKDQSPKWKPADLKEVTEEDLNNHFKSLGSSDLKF

NIPSNAP3A = target: T2, NIPSNAP3A (Homo sapiens, UniProt Q9UFN0); assay: CCMS differential competition, HepG2 lysate, inactive capture compound CPT-220; type: binding; details: CPT-220 1 μM; for Fc: fold change assay vs competition, 50 μM competitor; for MS/MS: with 50 μM competitor, HepG2 lysate
T2 construct: performing CCMS experiments in the hepatoma-derived cell line HepG2; host or cells: HepG2 lysate
T2 sequence (Q9UFN0 1-247): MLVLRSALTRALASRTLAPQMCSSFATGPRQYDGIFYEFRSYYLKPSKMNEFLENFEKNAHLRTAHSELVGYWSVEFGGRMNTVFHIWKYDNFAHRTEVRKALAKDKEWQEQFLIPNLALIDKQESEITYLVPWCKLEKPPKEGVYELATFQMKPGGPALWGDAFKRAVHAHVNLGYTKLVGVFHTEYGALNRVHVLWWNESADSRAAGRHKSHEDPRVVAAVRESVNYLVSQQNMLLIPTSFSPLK

PDXK = target: T3, PDXK (Homo sapiens, UniProt O00764); assay: as above; type: binding; details: CPT-220 1 μM; for Fc: fold change assay vs competition, 50 μM competitor; for MS/MS: with 50 μM competitor, HepG2 lysate
T3 construct: performing CCMS experiments in the hepatoma-derived cell line HepG2; host or cells: HepG2 lysate
T3 sequence (O00764 1-312): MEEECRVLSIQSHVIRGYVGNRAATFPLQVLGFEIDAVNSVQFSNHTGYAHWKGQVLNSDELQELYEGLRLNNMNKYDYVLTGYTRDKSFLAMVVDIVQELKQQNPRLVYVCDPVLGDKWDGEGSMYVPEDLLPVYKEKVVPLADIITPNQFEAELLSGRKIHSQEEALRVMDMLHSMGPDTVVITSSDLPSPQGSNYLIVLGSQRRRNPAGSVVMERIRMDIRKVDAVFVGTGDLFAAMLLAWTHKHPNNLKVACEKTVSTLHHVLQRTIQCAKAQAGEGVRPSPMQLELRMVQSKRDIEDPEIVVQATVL

AKR1B10 = target: T4, AKR1B10 (Homo sapiens, UniProt O60218); assay: as above; type: binding; details: CPT-220 1 μM; for Fc: fold change assay vs competition, 50 μM competitor; for MS/MS: with 50 μM competitor, HepG2 lysate
T4 construct: performing CCMS experiments in the hepatoma-derived cell line HepG2; host or cells: HepG2 lysate
T4 sequence (O60218 whole entry): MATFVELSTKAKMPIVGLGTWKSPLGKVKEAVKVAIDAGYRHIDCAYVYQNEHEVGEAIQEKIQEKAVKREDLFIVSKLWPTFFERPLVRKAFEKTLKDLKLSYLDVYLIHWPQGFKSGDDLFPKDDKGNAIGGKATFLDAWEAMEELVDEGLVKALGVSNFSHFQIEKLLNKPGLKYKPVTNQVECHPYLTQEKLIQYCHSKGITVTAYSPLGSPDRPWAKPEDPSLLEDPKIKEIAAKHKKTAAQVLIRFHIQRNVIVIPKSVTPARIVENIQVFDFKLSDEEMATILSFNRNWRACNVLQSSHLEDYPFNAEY

HIBCH [5] = target: T1, HIBCH; assay: Capture assay with CPT-224 followed by anti-HIBCH / streptavidin Western Blot; type: binding; set-up: made in house; host or cells: E. coli BL21; details: for competition of HIBCH capturing (anti-HIBCH Western Blot): CPT-224, competitor; for competition of crosslinking of HIBCH with CPT-224 (anti-Streptavidin Western Blot): recombinant HIBCH
COMT [6] = target: T5, COMT (Homo sapiens, UniProt P21964); assay: COMT activity microplate assay (aesculetin methylation, fluorometric); type: biochemical
T5 construct: His; host or cells: E. coli BL21
T5 sequence (P21964 1-221 isoform P21964-2): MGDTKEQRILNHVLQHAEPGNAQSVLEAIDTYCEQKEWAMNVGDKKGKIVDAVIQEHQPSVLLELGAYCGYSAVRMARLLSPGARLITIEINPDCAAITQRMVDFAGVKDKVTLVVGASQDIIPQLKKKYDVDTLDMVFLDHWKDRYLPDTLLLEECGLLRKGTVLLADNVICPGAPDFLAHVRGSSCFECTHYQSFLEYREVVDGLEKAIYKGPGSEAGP

ADI1 = target: T6, ADI1 (Homo sapiens, UniProt Q9BV57); assay: CCMS differential competition, HepG2 lysate, active capture compound CPT-224; type: binding; details: CPT-224 1 μM; for Fc: fold change assay vs competition, 50 μM competitor; for MS/MS: with 50 μM competitor, HepG2 lysate
T6 construct: performing CCMS experiments in the hepatoma-derived cell line HepG2; host or cells: HepG2 lysate
T6 sequence (Q9BV57 1-179): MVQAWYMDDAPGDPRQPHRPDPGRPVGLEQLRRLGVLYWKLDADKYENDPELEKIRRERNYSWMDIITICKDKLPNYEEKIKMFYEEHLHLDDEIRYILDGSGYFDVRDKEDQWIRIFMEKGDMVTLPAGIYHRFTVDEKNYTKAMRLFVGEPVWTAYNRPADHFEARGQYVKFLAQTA

CCBL2 = target: T7, CCBL2 (Homo sapiens, UniProt Q6YP21); assay: as above; type: binding; details: CPT-224 1 μM; for Fc: fold change assay vs competition, 50 μM competitor; for MS/MS: with 50 μM competitor, HepG2 lysate
T7 construct: performing CCMS experiments in the hepatoma-derived cell line HepG2; host or cells: HepG2 lysate
T7 sequence (Q6YP21 whole entry): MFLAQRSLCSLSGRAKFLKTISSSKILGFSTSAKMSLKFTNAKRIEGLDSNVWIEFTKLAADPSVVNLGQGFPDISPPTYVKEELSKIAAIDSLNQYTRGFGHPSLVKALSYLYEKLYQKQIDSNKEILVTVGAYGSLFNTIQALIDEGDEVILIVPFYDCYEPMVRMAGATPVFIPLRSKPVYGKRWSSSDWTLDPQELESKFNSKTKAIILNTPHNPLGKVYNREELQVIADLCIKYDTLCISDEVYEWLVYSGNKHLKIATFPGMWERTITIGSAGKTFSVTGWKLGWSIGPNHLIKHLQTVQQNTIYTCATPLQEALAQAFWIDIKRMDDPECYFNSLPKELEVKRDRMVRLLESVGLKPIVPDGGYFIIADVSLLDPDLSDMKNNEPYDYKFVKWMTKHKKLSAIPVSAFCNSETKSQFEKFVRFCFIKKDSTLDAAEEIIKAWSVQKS

GCDH = target: T8, GCDH (Homo sapiens, UniProt Q92947); assay: as above; type: binding; details: CPT-224 1 μM; for Fc: fold change assay vs competition, 50 μM competitor; for MS/MS: with 50 μM competitor, HepG2 lysate
T8 construct: performing CCMS experiments in the hepatoma-derived cell line HepG2; host or cells: HepG2 lysate
T8 sequence (Q92947 45-438): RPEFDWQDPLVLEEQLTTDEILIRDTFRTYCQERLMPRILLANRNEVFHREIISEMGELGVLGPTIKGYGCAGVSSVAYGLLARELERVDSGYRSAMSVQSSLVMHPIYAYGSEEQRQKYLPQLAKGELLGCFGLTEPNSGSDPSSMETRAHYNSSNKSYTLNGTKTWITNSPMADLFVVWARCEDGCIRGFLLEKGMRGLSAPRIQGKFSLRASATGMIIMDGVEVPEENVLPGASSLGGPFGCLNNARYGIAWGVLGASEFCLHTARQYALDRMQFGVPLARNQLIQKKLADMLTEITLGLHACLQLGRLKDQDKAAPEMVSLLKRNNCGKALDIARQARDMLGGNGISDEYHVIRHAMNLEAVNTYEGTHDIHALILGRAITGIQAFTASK

COMT [7] = target: T5, COMT; assay: Capture assay with CPT-224 followed by anti-COMT / streptavidin Western Blot; type: binding; details: for competition of COMT capturing (anti-COMT Western Blot): active capture compound, competitor; for competition of crosslinking of COMT with CPT-224 (anti-Streptavidin Western Blot): recombinant COMT
COMT [8] = target: T9, COMT (Homo sapiens, UniProt P21964); assay: CCMS differential competition and dose-dependent capturing, HepG2 lysate; type: binding; details: for Fc: fold change assay vs competition, 50 μM competitor; for Fc / MS/MS: CPT-224 1 μM; for MS/MS: with 50 μM competitor, HepG2 lysate; for competition of COMT capture, dose-dependent capturing: CPT-224 5 μM to 40 nM
T9 construct: performing CCMS experiments in the hepatoma-derived cell line HepG2; host or cells: HepG2 lysate
T9 sequence (P21964 1-271): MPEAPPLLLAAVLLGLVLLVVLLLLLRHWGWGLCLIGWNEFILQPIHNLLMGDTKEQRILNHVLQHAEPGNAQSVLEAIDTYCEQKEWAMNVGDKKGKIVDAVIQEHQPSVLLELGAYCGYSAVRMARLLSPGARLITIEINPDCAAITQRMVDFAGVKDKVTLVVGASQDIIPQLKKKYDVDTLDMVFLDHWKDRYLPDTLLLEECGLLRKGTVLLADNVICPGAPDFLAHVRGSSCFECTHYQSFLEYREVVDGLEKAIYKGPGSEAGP

Aβ42 protofibrils = Aβ42 protofibrils (Homo sapiens, UniProt P05067); details: cited from earlier work
Aβ42 protofibrils, sequence (P05067 672-713 limits assumed): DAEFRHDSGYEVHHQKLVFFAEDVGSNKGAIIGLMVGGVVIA

α-synuclein monomers = α-synuclein monomers (Homo sapiens, UniProt P37840); details: cited from earlier work
[9] = target: enoyl-acyl carrier protein reductase (InhA) (Mycobacterium tuberculosis, UniProt P9WGR1); details: cited from earlier work
enoyl-acyl carrier protein reductase (InhA), sequence (P9WGR1 whole entry, looked up): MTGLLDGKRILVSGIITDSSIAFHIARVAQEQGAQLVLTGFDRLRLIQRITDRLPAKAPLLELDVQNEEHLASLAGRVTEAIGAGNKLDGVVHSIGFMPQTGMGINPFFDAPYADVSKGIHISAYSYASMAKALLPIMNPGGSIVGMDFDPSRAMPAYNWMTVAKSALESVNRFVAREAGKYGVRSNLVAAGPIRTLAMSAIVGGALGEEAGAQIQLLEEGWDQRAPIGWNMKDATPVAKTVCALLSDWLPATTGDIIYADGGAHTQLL

SMILES	mitochondrial membrane potential (HepG2 cells [1]; 50 μM)	mitochondrial membrane potential (HepG2 cells [1]; 100 μM)	IC50 in galactose media compared to glucose media (HepG2 cells [2])	toxicity [3]	competition of HIBCH capture (dCCMS) (HIBCH [4])	binding to HIBCH (HIBCH [4])	Fc (NIPSNAP3A)	MS/MS (NIPSNAP3A)	Fc (PDXK)	MS/MS (PDXK)	Fc (AKR1B10)	MS/MS (AKR1B10)	competition of HIBCH capturing (anti-HIBCH Western Blot) (HIBCH [5])	competition of crosslinking of HIBCH with CPT-224 (anti-Streptavidin Western Blot) (HIBCH [5])	mitochondrial cytotoxicity (HepG2 cells [2])	IC50 (COMT [6]) [nM]	Fc (ADI1)	MS/MS (ADI1)	Fc (CCBL2)	MS/MS (CCBL2)	also measured
CCN(CC)C(=O)/C(C#N)=C/c1cc(O)c(O)c([N+](=O)[O-])c1 [entacapone, reference compound]	more than 50 % of untreated HepG2 cells	40-50 % of the control	a much smaller effect	more favorable toxicity profile	–	–	–	–	–	–	–	–	–	–	–	–	–	–	–	–	–
CCN1C(=O)S/C(=C\c2cc(O)c(O)c([N+](=O)[O-])c2)C1=O [CPT-212]	20-30 % of untreated HepG2 cells	0-5 % of the control	–	–	specifically competed	identified to bind	3	0.025	24.9	3.75	3.1	0	capturing was abolished	competed	significantly higher than that of entacapone and CPT-401 (A1)	179	4.29	0.3	3.40	2	Fc (GCDH): 6.34; MS/MS (GCDH): 2.3; competition of COMT capturing (anti-COMT Western Blot) (COMT [7]): signals were abolished; competition of crosslinking of COMT with CPT-224 (anti-Streptavidin Western Blot) (COMT [7]): competed; Fc (COMT [8]): 10.90; MS/MS (COMT [8]): 5
CCN(CC)C(=O)c1cc2cc(O)c(O)c([N+](=O)[O-])c2cc1C(=O)N(CC)CC [CPT-401, N2,N2,N3,N3-tetraethyl-6,7-dihydroxy-5-nitro-naphthalene-2,3-dicarboxamide]	more than 50 % of untreated HepG2 cells	40-50 % of the control	much less than for CPT-212 (B1)	–	no competition was observed	–	7.5	0	16	0	4.7	0.5	–	no competition	low mitochondrial cytotoxicity	54	3.67	0.3	3.05	2.6	Fc (GCDH): 5.90; MS/MS (GCDH): 2.6; competition of COMT capturing (anti-COMT Western Blot) (COMT [7]): signals were abolished; competition of crosslinking of COMT with CPT-224 (anti-Streptavidin Western Blot) (COMT [7]): competed; competition of COMT capture, dose-dependent capturing (COMT [8]): complete competition; Fc (COMT [8]): 34.2; MS/MS (COMT [8]): 3
Cc1ccc(C(=O)c2cc(O)c(O)c([N+](=O)[O-])c2)cc1 [tolcapone, reference compound]	20-30 % of untreated HepG2 cells	0-5 % of the control	> 4 fold	severe hepatotoxicity in several cases	specifically identified when tolcapone was used as competitor	identified to bind	–	–	–	–	–	–	capturing was abolished	competed	mitochondrial toxicant; also recorded: significantly higher than that of entacapone and CPT-401 (A1)	–	–	–	–	–	competition of HIBCH capture, dose-dependent capturing (HIBCH [4]; CPT-224 5 μM to 40 nM): competed only with tolcapone; inhibition of aggregation of Aβ42 protofibrils to mature amyloid fibrils (Aβ42 protofibrils): inhibit the aggregation of Aβ42 protofibrils to mature amyloid fibrils; inhibition of aggregation of α-synuclein monomers (α-synuclein monomers): inhibit aggregation of α-synuclein monomers; binding and inhibition of InhA [9]: bind and inhibit; competition of COMT capture, dose-dependent capturing (COMT [8]): complete competition
